Results taken from EP4806435A1, “DIHYDROCHROMENE-DERIVATIVE-CONTAINING THERAPEUTIC AGENT FOR CANCER” (Sumitomo Pharma Co., Ltd., priority 2023, dated 2025).
pIC50: −log10 of the molar value.

What was measured:
[1] = test system: U-87 cells; assay: Cytotoxicity assay of metabolites under sphere culture conditions (ATP); type: cell-based; conditions: Homo sapiens, U-87 MG, 168 h, 7 days in sphere medium, read-out: IC50 (cytotoxicity, cell viability by ATP)
Procedure: U-87 cells were cultured for 7 days in sphere medium in the presence of metabolites M2, M4, and M5, respectively. After culture, cellular ATP levels were quantified as an indicator of cell viability, and cell viability was calculated in the same manner as in Example 12 to compare cytotoxicity.

[2] = test system: U-87 cells (IDH1 wild-type); assay: Cytotoxicity, sphere culture with LDL, combination with ezetimibe (ATP); type: cell-based, human; conditions: ezetimibe at 3.3, 10, or 30 µM; 7 days; LDL 5 µg/mL
Procedure: U-87 cells were cultured for 7 days in sphere medium supplemented with LDL at a concentration of 5 µg/mL, with either ezetimibe (a cholesterol absorption inhibitor) added at 3.3, 10, or 30 µM, Compound 1 added at 1 µM, or a combination of both agents. Cell viability was calculated in the same manner as in Example 12, and the cytotoxic effects of each treatment were compared between single-agent and combination conditions.

[3] = test system: non-human primate; assay: 4-week non-human primate toxicity study (GLP); type: in vivo
Procedure: (§1) The initial starting dose of 20 mg/day (expressed as the present compound) was determined in accordance with the ICH S9 guideline of International Council for Harmonisation of Technical Requirements for Pharmaceuticals for Human Use (ICH). Based on a 4-week mouse toxicity study conducted in compliance with Good Laboratory Practice (GLP), the dose causing severe toxicity in 10% of the test animals (STD10) was determined to be 50 mg/kg. Applying a safety factor of 10 and interspecies scaling, the starting dose for this first-in-human (FIH) study was calculated to be 0.4 mg/kg, corresponding to a fixed dose of 24 mg for a 60-kg human. In a 4-week non-human primate toxicity study conducted in compliance with Good Laboratory Practice (GLP), the highest non-severely toxic dose (HNSTD) was determined to be 7.5 mg/kg. Applying a safety factor of 6 and interspecies scaling, the starting dose in humans was estimated to be 0.4 mg/kg, corresponding to a fixed dose of 24 mg. The final recommended starting dose for the first-in-human (FIH) study was rounded to 20 mg/day.

[4] = test system: mouse; assay: 4-week mouse toxicity study (GLP); type: in vivo
Procedure: as §1

[5] = test system: U-87 GBM xenografts; assay: Tumor shrinkage in mice bearing U-87 GBM xenografts; type: in vivo

Question: With CC1(C)Oc2cc(Cl)ccc2[C@@H]2OCC3(CCN(CCNC(=O)CNC=O)CC3)C[C@H]21 [Compound M2, N-2-[(4'aR,10'bR)-8'-chloro-5',5'-dimethyl-4'a,10'b-dihydro-2'H,4'H,5'H-spiro[piperidine-4,3'-pyrano[3,2-c][1]benzopyran]-1-yl]ethyl-N^2-formylglycinamide] as the molecule, how does the pIC50 [1] read?
Answer: The pIC50 was 5.44.

Question: How did the pIC50 [1] turn out when CC1(C)Oc2cc(Cl)ccc2[C@@H]2OCC3(CCNCC3)C[C@H]21 [Compound M4] was run?
Answer: Its pIC50 is 5.80.

Question: CC1(C)Oc2cc(Cl)ccc2[C@@H]2OCC3(CCN(CCO)CC3)C[C@H]21 [Compound M5, 2-[(4'aR,10'bR)-8'-chloro-5',5'-dimethyl-4'a,10'b-dihydro-2'H,4'H,5'H-spiro[piperidine-4,3'-pyrano[3,2-c][1]benzopyran]-1-yl]ethan-1-ol] was tested. Which pIC50 [1] did it give?
Answer: The pIC50 was 5.68.

Question: With O=C1[C@H](CC[C@H](O)c2ccc(F)cc2)[C@@H](c2ccc(O)cc2)N1c1ccc(F)cc1 [ezetimibe, reference compound] as the molecule, how does the “cytotoxicity, single agent” value [2] read?
Answer: Its value is “low cytotoxicity”.

Question: With CC1(C)Oc2cc(Cl)ccc2[C@@H]2OCC3(CCN(CCn4ccnc4)CC3)C[C@H]21 [the present compound, (4'aR,10'bR)-8'-chloro-1-[2-(1H-imidazol-1-yl)ethyl]-5',5'-dimethyl-4'a,10'b-dihydro-2'H,4'H,5'H-spiro[piperidine-4,3'-pyrano[3,2-c][1]benzopyran]] as the molecule, how does the “highest non-severely toxic dose (HNSTD)” value [3] read?
Answer: Its value is 7.5 mg/kg.

Question: What about the “dose causing severe toxicity in 10% of the test animals (STD10)” value [4] of the same molecule?
Answer: The value was 50 mg/kg.

Question: And the “minimum pharmacologically active dose in humans (human equivalent dose, HED)” value ([5]; HED of 3 mg/kg in mice bearing U-87 GBM xenografts)?
Answer: Its value is 15 mg.

Question: And the “dose at which a consistent tumor shrinkage effect was observed” value ([5]; mice bearing U-87 GBM xenografts)?
Answer: Its value is 3 mg/kg.
